Assay results from patent US11246965B2, “Compositions and methods for reducing neointima formation” (University of Georgia Research Foundation, Inc., priority 2013, dated 2022).

Experiments:
CTP synthetase = conditions: cited from earlier work; for CTPS activity: literature
Endothelial cell C166 = assay: EC proliferation (MTT cell proliferation assay); format: cell-based
Experimental: Endothelial cell C166 was purchased from ATCC and grown at 37° C. in a humidified atmosphere of 5% CO2 in DMEM (Invitrogen) supplemented with 10% FBS.
(§1) Cell proliferation was evaluated with 3-(4,5-dimethylthiazol-2-yl)-2,5-diphenyltetrazolium (MTT) assay using a TACS MTT Cell Proliferation Assay Kit (Trivegen). The optical density at 570 nm was measured.

[1] = tested on: wire-injured mouse carotid artery; assay: Mouse carotid artery wire injury model, re-endothelialization (Evans Blue); format: in vivo; conditions: 10 mg/kg/day, in the presence of CPEC
Experimental: Mice were anesthetized with ketamine hydrochloride (80 mg/kg IP) and xylazine (5 mg/kg IP), a 0.38-mm flexible angioplasty guidewire was advanced by 1 cm via a transverse arteriotomy of the external carotid artery, and endothelial denudation of the common carotid artery was achieved by 3 rotational passes (Werner, et al., Circ. Res., 93:e17-e24 (2003)).
To further establish CTPS function in re-endothelialization after vascular injury, the endothelial denudation and re-endothelialization was tested in a different model, i.e., mouse wire-injury model. […] Systematic administration of CPEC was achieved via osmotic pump (1 mg/kg/day). Re-endothelialization in mouse arteries occurred rapidly following injury (FIG. 6B). 5 days after injury, re-endothelialization was completed, consistent with the previous reports (Hagensen, et al., Cardiovasc Res., 93:223-231 (2012)).

[2] = tested on: Rat aortic smooth muscle cells (SMCs); assay: SMC proliferation (MTT cell proliferation assay); format: cell-based
Experimental: Rat aortic smooth muscle cells (SMCs) were cultured by enzyme-digestion method from rat thoracic aorta as described previously (Hofer, et al., Proc Natl Acad Sci USA., 98:6412-6416 (2001), Marquez, et al., Biochem Pharmacol., 41:1821-1829 (1991), (Berg, et al., Eur. J. Biochem., 216:161-167 (1993)). SMC phenotype of the cultured cells was confirmed by the expression of smooth muscle alpha-actin and SM22-alpha.
as §1

[3] = tested on: Rat aortic smooth muscle cells (SMCs); assay: In vitro SMC apoptosis, PI/Annexin V flow cytometry; format: cell-based; conditions: 24 h treatment with 500 nM
Experimental: (§2) In vivo cell apoptosis was evaluated by detecting DNA fragmentation using the terminal deoxynucleotidyl transferase (TdT)-mediated dUTP-digoxigenin nick end-labeling method (TUNEL kit, Roche, USA). Apoptotic cells were observed under a fluorescent microscope. In vitro cell apoptosis was measured by Flow Cytometry. Cells were stained with both Annexin V-FITC (BD Biosciences) and propidium iodide (PI) and analyzed on a FACSCALIBUR™ (Becton Dickinson). The percentages of positive-stained cells were quantified using […]™ software (Becton Dickinson). Non-stained cells served as controls.

neointima SMCs = assay: In vivo cell apoptosis by TUNEL assay in injured arteries; parameters: species or system rat; conditions: 2 mg/kg b.w./day
Experimental: as §2
To confirm the specificity of CTPS1 function, CTPS1 was knockdown using adenoviral-mediated shRNA delivery in injured arteries.

[4] = tested on: balloon-injured rat carotid arteries; assay: Re-endothelialization in rat carotid artery balloon injury model (CD31, Evans blue); format: in vivo; conditions: 1 mg/kg CPEC, day 14
Experimental: Rat carotid artery balloon injury was performed using 2F Fogarty arterial embolectomy balloon catheter (Baxter Edwards Healthcare) as described previously (Tulis, Methods Mol. Med., 139:1-30 (2007)). 7, 14 or 60 days later, the balloon-injured arteries were perfused with saline, fixed with 4% paraformaldehyde, embedded in paraffin, and sectioned. Subsequent morphometric analyses were performed in a double-blinded manner. Ten sections that were evenly distributed in the vessel segments were collected for analysis. The sections were stained with modified hematoxylin and eosin or elastica van Gieson (VG) staining. Cross-sectional images were captured with a Nikon microscope (Nikon America Inc). The circumference of the lumen, internal elastic lamina, and external elastic lamina were measured using Image-pro Plus Software. For immunohistochemistry (IHC) staining, sections were rehydrated, blocked with 5% goat serum, permeabilized with 0.01% Triton X-100 in PBS, and incubated with primary antibodies at 4° C. overnight followed by incubation with horseradish peroxidase-conjugated secondary antibody. The sections were counterstained with hematoxylin.
To determine if CTPS1 plays a role in re-endothelialization during vascular remodeling in vivo, CPEC was administered systematically via osmotic pump into rats with balloon-injury or mice with wire-injury in their carotid arteries. […]

[5] = abundant (10 μM) cytidine alone (FIG. 6D)

[N-]=[N+]=CC(=O)CC[C@H](N)C(=O)O [6-diazo-5-oxonorleucine, 6-diazo-5-oxo-L-norleucin]
CTPS activity (CTP synthetase): effectively block CTPS activity

O=c1oc2c(O)c(O)cc3c(=O)oc4c(O)c(O)cc1c4c23 [EA, ellagic acid]
cytidine-restored EC proliferation (Endothelial cell C166; CPEC + cytidine): blocked cytidine-restored EC proliferation in a dose-dependent manner | re-endothelialization [1]: dramatically impaired

Nc1ccn([C@@H]2O[C@H](CO)[C@@H](O)[C@H]2O)c(=O)n1 [cytidine]
restoration of SMC proliferation blocked by high dosage of CPEC ([2]; 500 nM CPEC + 10 μM cytidine): not SMC | restoration of EC proliferation blocked by high dosage of CPEC (Endothelial cell C166; 500 nM CPEC + 10 μM cytidine): restored EC

carbodine
CTPS activity (CTP synthetase): effectively block CTPS activity

Nc1ccn([C@@H]2C=C(CO)[C@@H](O)[C@H]2O)c(=O)n1 [CPEC, cyclopentenyl cytosine]
SMC apoptosis [3]: did not induce SMC apoptosis | in vivo cell apoptosis (TUNEL) (neointima SMCs): no apoptotic cells were observed | re-endothelialization area of the injured vessels (Evans blue) [4]: 66%

Nc1ccn([C@@H]2O[C@H](COP(=O)(O)OP(=O)(O)OP(=O)(O)O)[C@@H](O)[C@H]2O)c(=O)n1 [CTP]
SMC proliferation [2, 5]: not to be able to stimulate | EC proliferation (Endothelial cell C166; [5]): not to be able to stimulate

CC(=O)O[C@H]1C(=O)[C@@]2(C)[C@H]([C@H](OC(=O)c3ccccc3)[C@]3(O)C[C@H](OC(=O)[C@H](O)[C@@H](NC(=O)c4ccccc4)c4ccccc4)C(C)=C1C3(C)C)[C@]1(OC(C)=O)CO[C@@H]1C[C@@H]2O [paclitaxel, Paclitaxel]
SMC proliferation ([2]; 20 nmol/L or 500 nmol/L): suppressed | EC proliferation (Endothelial cell C166; 20 nmol/L or 500 nmol/L): suppressed | restoration of inhibitory effect on EC and SMC proliferation by cytidine (Endothelial cell C166; 500 nM paclitaxel with 10 μM cytidine): could not be restored by cytidine | relative sensitivity of SMCs and ECs (proliferation) (Endothelial cell C166; ECs compared with SMCs): ECs seemed to be more sensitive to paclitaxel than SMCs

N[C@H](C(=O)O)[C@@H]1CC(Br)=NO1 [3-bromoacivicin]
CTP synthetase inhibitor potency relative to 3-chloro analog (acivicin) (CTP synthetase; Conti, et al, ChemMedChem (2011)): three times as potent
